Consider one compound from publication PMC10807816, “Molecular mechanisms and evolutionary robustness of a color switch in proteorhodopsins” (Science Advances, 2024).

The test deals with T1, GPR (green proteorhodopsin) (uncultured marine gamma proteobacterium EBAC31A08, UniProt Q9F7P4, L105Q).
T1 construct: pET27b(+) NdeI/XhoI, C-terminal HSV tag and His6 tag kept; E. coli C43; Ni-NTA, DDM, DMPC/DMPA liposomes
Nature of the test: solid-state NMR (DNP, CSA, 2D […]/1H/[…]) and UV-Vis. It counts as binding. The settings on record: covalent; protonated Schiff base to Lys231; pH 9.0; labelled compound; called BPR.

T1 sequence (Q9F7P4 18-249 L105Q): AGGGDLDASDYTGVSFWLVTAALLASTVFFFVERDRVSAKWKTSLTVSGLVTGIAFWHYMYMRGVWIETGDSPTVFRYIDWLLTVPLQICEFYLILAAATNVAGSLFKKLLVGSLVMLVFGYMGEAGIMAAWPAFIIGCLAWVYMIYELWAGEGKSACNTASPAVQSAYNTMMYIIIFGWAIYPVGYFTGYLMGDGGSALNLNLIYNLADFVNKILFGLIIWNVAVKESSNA

As for `CC1=C(/C=C/C(C)=C/C=C/C(C)=C/C=O)C(C)(C)CCC1` [all-trans retinal], the “solid-state NMR (DNP, CSA, 2D 13C/1H/15N) and UV-Vis” value is “Notable chemical shift changes between GPR and BPR have been observed”.
